Reference: US9126945B2, “N-(3-carbamoylphenly)-1H-pyrazole-5-carboxamide derivatives and the use thereof for controlling animal pests” (BAYER INTELLECTUAL PROPERTY GMBH, priority 2011, dated 2015)

How the values were obtained:
Ctenocephalides felis = Ctenocephalides felis oral (CTECFE); type: in vivo; conditions: for kill in % (effect): 100 ppm, after 2 days; for inhibition at 0.8 ppm: Ctenocephalides felis, po, 48 h, CTECFE, 2 dat
Experimental: Ctenocephalides felis Oral (CTECFE)
Solvent: 1 part by weight of dimethyl sulphoxide
For the purpose of producing a suitable preparation of active compound, 10 mg of active compound are mixed with 0.5 ml of dimethyl sulphoxide. A portion of the concentrate is diluted with citrated cattle blood, and the desired concentration is prepared.
(§1) About 20 unfed adult fleas (Ctenocephalides felis) are placed into a chamber which is closed at the top and bottom with gauze. A metal cylinder whose bottom end is closed with parafilm is placed onto the chamber. The cylinder contains the blood/active compound preparation, which can be taken up by the fleas through the parafilm membrane. After 2 days, the kill in % is determined.
For the purpose of preparing an appropriate active compound formulation, 10 mg of active compound are mixed with 0.5 ml of dimethyl sulphoxide. A portion of the concentrate is diluted with citrated cattle blood, and the desired concentration is prepared.
as §1, with “membrane.” for “membrane. After 2 days, the kill in % is determined.”

[1] = test system: Boophilus microplus females of the SP-resistant Parkhurst strain; assay: Boophilus microplus test (DIP); type: in vivo; conditions: for efficacy in % (laying of fertile eggs): 100 ppm, after 7 days; for inhibition at 20 ppm: Rhipicephalus microplus, 168 h, BOOPMI DIP, 7 dat
Experimental: Boophilus microplus Test (DIP)
Test animals: adult engorged Boophilus microplus females of the SP-resistant Parkhurst strain
(§2) Solvent: dimethyl sulphoxide
10 mg of active compound are dissolved in 0.5 ml of dimethyl sulphoxide. For the purpose of preparing a suitable formulation, the active compound solution is diluted with water to the concentration desired in each case.
This active compound preparation is pipetted into tubes. 8-10 ticks are transferred into a further tube with holes. The tube is immersed into the active compound formulation, and all ticks are completely wetted. After the liquid has rum off, the ticks are transferred to filter discs in plastic dishes and kept in a climatized room. The activity is assessed after 7 days by laying of fertile eggs. Eggs whose fertility is not outwardly visible are stored in glass tubes in a climate-controlled cabinet until the larvae hatch. An efficacy of 100% means that none of the ticks has laid any fertile eggs.
10 mg of active compound are dissolved in 0.5 ml of dimethyl sulphoxide. For the purpose of preparing a suitable formulation, the active compound solution is diluted with water to the concentration desired in each case (in ppm).
This active compound preparation is pipetted into tubes. 8-10 ticks are transferred into a further tube with holes. The tube is immersed into the active compound formulation, and all ticks are completely wetted. After the liquid has run out, the ticks are transferred onto filter discs in plastic dishes and stored in a climate-controlled room.
The activity is assessed after the desired time by laying of fertile eggs. Eggs whose fertility is not evident from the outside are kept in glass tubes in a climate-controlled cabinet until the larvae have hatched. An effect of 100% means that none of the ticks has laid any fertile eggs.

Phaedon cochleariae [2] = assay: Phaedon test (PHAECO spray treatment), Chinese cabbage leaf discs; conditions: application rate 500 g/ha; after 7 days
Myzus persicae = assay: Myzus test (MYZUPE spray treatment); type: in vivo; conditions: for efficacy in %: application rate 500 g/ha, after 6 days
Experimental: Myzus test (Myzupe spray treatment)
After 6 days, the efficacy in % is determined.
Myzus Test (MYZUPE Spray Treatment)

Boophilus microplus = Boophilus microplus test (BOOPMI injection); type: in vivo; conditions: for efficacy in % (laying of fertile eggs): 20 μg/animal, after 7 days; for % Activity dat: BOOPMI injection, 0.032 μg/animal, 7 dat
Experimental: Boophilus microplus Test (BOOPMI Injection)
as §2
The active compound solution is injected into the abdomen (Boophilus microplus), and the animals are transferred into dishes and stored in a climate-controlled room. The activity is assessed by laying of fertile eggs.
The active compound solution is injected into the abdomen (Boophilus microplus), and the animals are transferred into dishes and stored in a climate-controlled room.
The activity is assessed by laying of fertile eggs. 100% means that none of the ticks has laid any fertile eggs.

Musca domestica = Musca domestica test (MUSCDO); type: in vivo; conditions: 100 ppm; after 2 days
Experimental: Musca domestica Test (MUSCDO)
as §2
Vessels containing a sponge treated with the active compound preparation of the desired concentration are populated with adult Musca domestica.
(§3) After 2 days, the kill in % is determined.
Vessels containing a sponge treated with the active compound formulation of the desired concentration are populated with adult Musca domestica.
After the desired period of time, the kill in % is determined.

Nilaparvata lugens = Nilaparvata lugens spray test (NILALU); type: in vivo; conditions: 168 h, 7 dat
Excerpt: Nilaparvata lugens Spray Test (NILALU)
(§4) If the addition of ammonium salts or/and penetrants is required, these are in each case added in a concentration of 1000 ppm to the solution of the preparation.

Phaedon cochleariae [3] = assay: Phaedon cochleariae spray test (PHAECO), cabbage leaves, ppm; type: in vivo; conditions: 168 h, 0.8 ppm, 7 dat
Excerpt: Phaedon cochleariae Spray Test (PHAECO)
(§5) Solvent: 7 parts by weight of dimethylformamide
(§6) Emulsifier: 2 parts by weight of alkylaryl polyglycol ether
as §4

Tetranychus urticae [4] = assay: Tetranychus test, OP-resistant (TETRUR spray treatment), bean leaf discs; type: in vivo; conditions: for efficacy in %: application rate 500 g/ha, after 6 days
Experimental: Tetranychus Test, OP-Resistant (TETRUR Spray Treatment)
After a time of 6 days, the efficacy in % is determined.

Spodoptera frugiperda [5] = assay: Spodoptera frugiperda test (SPODFR spray treatment), maize leaf discs; type: in vivo; conditions: application rate 500 g/ha; after 7 days
Excerpt: Spodoptera frugiperda Test (SPODFR Spray Treatment)

Lucilia cuprina larvae = assay: Lucilia cuprina test (LUCICU); type: in vivo; conditions: 100 ppm; after 2 days
Experimental: Lucilia cuprina Test (LUCICU)
as §2
Vessels containing horse meat treated with the active compound preparation of the desired concentration are populated with about 20 Lucilia cuprina larvae.
as §3

[6] = log P by HPLC, EEC Directive 79/831 Annex V.A8, method a); type: physicochemical; conditions: reversed-phase C18, acetonitrile/water with formic acid, gradient 10% to 95% acetonitrile; for chromatographic logP: reversed-phase C18 HPLC column; cell marked a): HPLC; for logP: cell marked a): HPLC
Experimental: (§7) ^a) Note regarding the determination of the log P values and mass detection The determination of the given log P values was carried out in accordance with EEC Directive 79/831 Annex V.A8 by HPLC (High Performance Liquid Chromatography) on a reversed-phase column (C18). Agilent 1100 LC system; 50*4.6 Zorbax Eclipse Plus C18 1.8 micron; mobile phase A: acetonitrile (0.1% formic acid); mobile phase B: water (0.09% formic acid); linear gradient from 10% acetonitrile to 95% acetonitrile in 4.25 min, then 95% acetonitrile for a further 1.25 min; oven temperature 55° C.; flow rate: 2.0 ml/min Mass detection is via an Agilend MSD system.
as §7, with “mass detection:” for “mass detection”, “2.0 ml/min.” for “2.0 ml/min”

Plutella xylostella = Plutella xylostella spray test (PLUTMA); type: in vivo; conditions: 168 h, 7 dat
Excerpt: Plutella xylostella Spray Test (PLUTMA)
as §5, §6, §4

Tetranychus urticae [7] = assay: Tetranychus urticae spray test, OP-resistant (TETRUR), bean plants, ppm; type: in vivo; conditions: 168 h, 4 ppm, 7 dat
Excerpt: Tetranychus urticae Spray Test, OP-Resistant (TETRUR)
as §5, §6, §4

Spodoptera frugiperda [8] = assay: Spodoptera frugiperda spray test (SPODFR), cotton leaves, ppm; type: in vivo; conditions: 168 h, 7 dat
Excerpt: Spodoptera frugiperda Spray Test (SPODFR)
as §5, §6, §4
Cotton leaves (Gossypium hirsutum) are sprayed with an active compound formulation of the desired concentration and populated with caterpillars of the armyworm (Spodoptera frugiperda).

[9] = test system: Frankliniella occidentalis; assay: Frankliniella occidentalis spray test (FRANOC); type: in vivo; conditions: 168 h, 20 g/ha, 7 dat
Excerpt: Frankliniella occidentalis Spray Test (FRANOC)
as §4

Heliothis armigera = Heliothis armigera spray test (HELIAR); type: in vivo; conditions: Helicoverpa armigera, 168 h, 20 ppm, 7 dat
Excerpt: Heliothis armigera Spray Test (HELIAR)
as §5, §6, §4

| SMILES | kill in % (effect) (Ctenocephalides felis) [%] | inhibition at 0.8 ppm (Ctenocephalides felis) [%] | efficacy in % (laying of fertile eggs) [1] [%] | inhibition at 20 ppm [1] [%] | efficacy in % (Phaedon cochleariae [2]) [%] | efficacy in % (Myzus persicae) [%] | efficacy in % (laying of fertile eggs) (Boophilus microplus) [%] | % Activity dat (Boophilus microplus) [%] | kill in % (efficacy) (Musca domestica) [%] | inhibition at 0.8 ppm (Phaedon cochleariae [3]) [%] | efficacy in % (Tetranychus urticae [4]) [%] | efficacy in % (Spodoptera frugiperda [5]) [%] | kill in % (efficacy) (Lucilia cuprina larvae) [%] | chromatographic logP [6] | logP [6] | inhibition at 4 ppm (Tetranychus urticae [7]) [%] | inhibition at 20 ppm (Spodoptera frugiperda [8]) [%] | further results |
| --- | --- | --- | --- | --- | --- | --- | --- | --- | --- | --- | --- | --- | --- | --- | --- | --- | --- | --- |
| CCN(C(=O)c1c(C(F)(F)F)c(C(F)(F)C(F)(F)F)nn1C)c1ccc(Cl)c(C(=O)NC2(C#N)CC2)c1 [Example 6] | 100 | 80 | 100 | 100 | 100 | 100 | 100 | 70 | 100 | 100 | 100 | 100 | 100 | 3.36 | – | – | – | inhibition at 20 g/ha (Myzus persicae; Myzus persicae, 144 h, MYZUPE, 20 g/ha, 6 dat): 70%; inhibition at 20 g/ha (Nilaparvata lugens; 20 g/ha): 90%; inhibition at 20 g/ha (Tetranychus urticae [4]; Tetranychus urticae, foliar, 144 h, TETRUR, 20 g/ha, 6 dat): 100% |
| Cn1nc(C(F)(F)C(F)(F)F)c(C(F)(F)F)c1C(=O)Nc1ccc(Cl)c(C(=O)NC2(C#N)CCC2)c1 [Example 7] | 80 | – | – | – | 100 | – | 100 | – | 100 | – | 100 | 83 | 100 | – | 3.55 ^a) | – | – | – |
| CN(C(=O)c1c(C(F)(F)F)c(C(F)(F)C(F)(F)F)nn1C)c1ccc(Cl)c(C(=O)NC2(C#N)CC2)c1 [Example 8] | 100 | 90 | 100 | 100 | 100 | 100 | 100 | 100 | 100 | 100 | 100 | 100 | 100 | 3.21 | – | 95 | 100 | inhibition at 100 g/ha (Myzus persicae; Myzus persicae, 144 h, MYZUPE, 100 g/ha, 6 dat): 100%; inhibition at 20 ppm (Plutella xylostella): 100% |
| Cn1nc(C(F)(F)F)c(C(F)(F)F)c1C(=O)Nc1ccc(Cl)c(C(=O)NC2(C#N)CC2)c1 [Example 9] | 100 | – | 100 | – | 100 | 90 | 100 | – | – | – | 100 | 100 | 100 | – | 2.85 ^a) | – | – | – |
| Cn1nc(C(F)(F)C(F)(F)F)c(C(F)(F)F)c1C(=O)Nc1ccc(Cl)c(C(=O)NC2CC2)c1 [Ik-1] | – | 0 | – | – | – | – | – | – | – | – | – | – | – | – | – | 40 | 20 | inhibition at 20 g/ha [9]: 0%; inhibition at 500 g/ha (Nilaparvata lugens; 500 g/ha): 0%; inhibition at 20 ppm (Heliothis armigera): 45% |
